# Laboratory results from patent US20260365670A1, “EGFR INHIBITORS AND USES THEREOF” (DIZAL (JIANGSU) PHARMACEUTICAL CO., LTD., priority 2022, published 2026).
# Like-named read-outs stand apart in the source and are kept apart here.
# Assays:
# EGFR (C797S L858R) = molecular target: T1, EGFR (C797S L858R) (Homo sapiens, UniProt P00533, C797S/L858R); assay: Inhibition of EGFR (C797S L858R) biochemical enzymatic activity (HTRF); conditions: EGFR L858-C797S, 1 mM ATP, 1 h, room temperature, read-out: IC50 (nM) @L858-C797S
# T1 construct: purchased signalchem
# T1 sequence (P00533 25-1210 C797S/L858R): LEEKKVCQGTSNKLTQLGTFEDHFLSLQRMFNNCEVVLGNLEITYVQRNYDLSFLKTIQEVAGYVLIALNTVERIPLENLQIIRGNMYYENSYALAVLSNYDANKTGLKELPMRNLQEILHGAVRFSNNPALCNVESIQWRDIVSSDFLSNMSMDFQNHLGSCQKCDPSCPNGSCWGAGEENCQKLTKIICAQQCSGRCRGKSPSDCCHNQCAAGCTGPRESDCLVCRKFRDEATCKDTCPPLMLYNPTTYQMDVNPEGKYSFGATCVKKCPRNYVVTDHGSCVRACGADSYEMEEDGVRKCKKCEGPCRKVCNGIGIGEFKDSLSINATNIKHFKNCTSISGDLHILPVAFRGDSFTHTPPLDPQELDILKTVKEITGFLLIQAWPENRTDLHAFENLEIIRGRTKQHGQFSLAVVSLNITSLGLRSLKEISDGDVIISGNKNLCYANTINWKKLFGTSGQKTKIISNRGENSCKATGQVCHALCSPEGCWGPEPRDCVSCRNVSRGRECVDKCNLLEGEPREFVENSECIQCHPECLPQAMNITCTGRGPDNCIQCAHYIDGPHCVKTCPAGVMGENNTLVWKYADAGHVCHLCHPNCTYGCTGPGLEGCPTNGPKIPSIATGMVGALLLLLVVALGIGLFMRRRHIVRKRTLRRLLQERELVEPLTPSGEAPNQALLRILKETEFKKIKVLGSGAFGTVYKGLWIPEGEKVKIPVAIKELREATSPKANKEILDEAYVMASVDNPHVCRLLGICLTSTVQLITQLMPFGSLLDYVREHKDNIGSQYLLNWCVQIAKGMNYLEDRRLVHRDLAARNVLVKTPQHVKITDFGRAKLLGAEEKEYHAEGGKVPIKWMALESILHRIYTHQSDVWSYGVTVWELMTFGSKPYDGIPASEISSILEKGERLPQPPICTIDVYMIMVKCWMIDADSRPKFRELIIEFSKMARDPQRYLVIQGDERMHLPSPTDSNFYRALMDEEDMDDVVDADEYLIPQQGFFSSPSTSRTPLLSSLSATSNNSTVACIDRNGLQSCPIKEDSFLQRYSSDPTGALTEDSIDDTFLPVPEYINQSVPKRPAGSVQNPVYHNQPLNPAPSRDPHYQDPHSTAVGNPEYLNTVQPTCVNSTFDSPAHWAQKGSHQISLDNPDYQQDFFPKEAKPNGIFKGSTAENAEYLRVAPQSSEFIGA
# Procedure, shortened: (§1)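 Time-resolved FRET assay of EGFR substrate phosphorylation. Conditions: 1 μM TK substrate-biotin, 1 mM ATP, Mg/Mn buffer, 1 h at RT. IC50 from 4-parameter curve fit.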
# EGFR Exon19Del/T790M = molecular target: T2, EGFR Exon19Del/T790M (Homo sapiens, UniProt P00533, DEL746-750/T790M); assay: Inhibition of EGFR Exon19Del/T790M biochemical enzymatic activity (HTRF); conditions: EGFR Del19-T790M, 1 mM ATP, 1 h, room temperature, read-out: IC50 (nM) @Del19-T790M
# T2 construct: purchased Carna Bio
# T2 sequence (P00533 with tags, fused parts or gaps DEL746-750/T790M limits assumed): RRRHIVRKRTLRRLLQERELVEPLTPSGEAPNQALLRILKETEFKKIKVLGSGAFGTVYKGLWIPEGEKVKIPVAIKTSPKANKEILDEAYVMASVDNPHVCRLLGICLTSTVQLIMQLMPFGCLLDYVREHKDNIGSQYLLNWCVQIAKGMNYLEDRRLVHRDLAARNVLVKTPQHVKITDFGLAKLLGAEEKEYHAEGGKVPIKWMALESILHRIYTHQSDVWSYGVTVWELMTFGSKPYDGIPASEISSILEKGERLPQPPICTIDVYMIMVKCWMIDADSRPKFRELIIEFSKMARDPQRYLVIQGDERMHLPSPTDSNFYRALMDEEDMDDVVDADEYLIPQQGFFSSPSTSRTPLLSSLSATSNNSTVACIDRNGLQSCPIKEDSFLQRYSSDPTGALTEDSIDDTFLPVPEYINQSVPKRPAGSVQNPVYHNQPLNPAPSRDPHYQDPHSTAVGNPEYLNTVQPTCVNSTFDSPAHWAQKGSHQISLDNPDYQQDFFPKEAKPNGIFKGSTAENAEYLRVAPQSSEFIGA
# Procedure, shortened: as §1
# EGFR L858R = molecular target: T3, EGFR L858R (Homo sapiens, UniProt P00533, L858R); assay: Inhibition of EGFR L858R biochemical enzymatic activity (HTRF); conditions: 1 mM ATP, 1 h, room temperature, read-out: IC50 (nM) @L858R
# T3 construct: purchased Carna Bio
# Procedure, shortened: as §1
# EGFR wild type = molecular target: T4, EGFR wild type (Homo sapiens, UniProt P00533); assay: Inhibition of EGFR wild type biochemical enzymatic activity (HTRF); conditions: EGFR WT, 1 mM ATP, 1 h, room temperature, read-out: IC50 (nM) @WT
# T4 construct: purchased Carna Bio
# Procedure, shortened: as §1
# EGFR Exon19Del = molecular target: T5, EGFR Exon19Del (Homo sapiens, UniProt P00533, DEL746-750); assay: Inhibition of EGFR Exon19Del biochemical enzymatic activity (HTRF); conditions: EGFR Del19, 1 mM ATP, 1 h, room temperature, read-out: IC50 @Del19
# T5 construct: purchased Carna Bio
# Procedure, shortened: as §1
# EGFR[T790M/C797S/L858R] = molecular target: T6, EGFR[T790M/C797S/L858R] (Homo sapiens, UniProt P00533, C797S/L858R/T790M); assay: Inhibition of EGFR[T790M/C797S/L858R] biochemical enzymatic activity (HTRF); conditions: EGFR T790M-C797S-L858R, 1 mM ATP, 1 h, room temperature, read-out: IC50 (nM) @T790M- C797S - L858R
# T6 construct: purchased Carna Bio
# T6 sequence (P00533 25-1210 T790M/C797S/L858R): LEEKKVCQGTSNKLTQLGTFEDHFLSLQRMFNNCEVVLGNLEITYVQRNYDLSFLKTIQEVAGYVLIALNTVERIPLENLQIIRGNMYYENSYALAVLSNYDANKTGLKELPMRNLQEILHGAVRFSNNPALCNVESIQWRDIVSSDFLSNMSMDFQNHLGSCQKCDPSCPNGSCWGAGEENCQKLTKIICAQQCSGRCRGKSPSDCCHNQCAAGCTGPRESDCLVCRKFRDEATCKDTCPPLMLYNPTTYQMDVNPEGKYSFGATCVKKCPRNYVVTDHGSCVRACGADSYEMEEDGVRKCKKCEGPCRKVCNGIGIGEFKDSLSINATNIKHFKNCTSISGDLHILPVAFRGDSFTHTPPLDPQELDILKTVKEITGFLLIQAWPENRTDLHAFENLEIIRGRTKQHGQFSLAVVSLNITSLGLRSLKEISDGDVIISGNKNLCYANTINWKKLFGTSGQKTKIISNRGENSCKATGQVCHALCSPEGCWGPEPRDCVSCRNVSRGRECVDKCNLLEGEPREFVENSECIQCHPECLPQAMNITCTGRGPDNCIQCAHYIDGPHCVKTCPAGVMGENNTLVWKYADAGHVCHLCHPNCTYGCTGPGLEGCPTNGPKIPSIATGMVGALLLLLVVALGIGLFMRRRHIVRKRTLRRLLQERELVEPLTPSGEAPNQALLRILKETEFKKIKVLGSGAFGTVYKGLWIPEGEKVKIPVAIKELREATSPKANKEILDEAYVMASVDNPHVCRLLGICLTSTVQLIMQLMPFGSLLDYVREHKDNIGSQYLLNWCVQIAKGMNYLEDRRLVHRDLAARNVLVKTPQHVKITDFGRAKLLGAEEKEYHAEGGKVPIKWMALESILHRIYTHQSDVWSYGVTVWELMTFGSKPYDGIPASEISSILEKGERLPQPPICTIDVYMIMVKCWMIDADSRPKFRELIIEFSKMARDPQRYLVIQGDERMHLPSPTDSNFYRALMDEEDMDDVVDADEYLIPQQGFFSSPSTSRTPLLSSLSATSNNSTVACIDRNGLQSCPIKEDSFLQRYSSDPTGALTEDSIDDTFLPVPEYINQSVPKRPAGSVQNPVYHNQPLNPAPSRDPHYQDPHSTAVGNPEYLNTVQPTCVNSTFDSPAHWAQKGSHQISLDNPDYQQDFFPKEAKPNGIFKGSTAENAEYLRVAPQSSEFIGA
# Procedure, shortened: as §1
# EGFR (d746-750 C797S) = molecular target: T7, EGFR (d746-750 C797S) (Homo sapiens, UniProt P00533, C797S/DEL746-750); assay: Inhibition of EGFR (d746-750 C797S) biochemical enzymatic activity (HTRF); conditions: EGFR Del19-C797S, 1 mM ATP, 1 h, room temperature, read-out: IC50 (nM) @Del19-C797S
# T7 construct: purchased signalchem
# T7 sequence (P00533 with tags, fused parts or gaps DEL746-750/C797S limits assumed): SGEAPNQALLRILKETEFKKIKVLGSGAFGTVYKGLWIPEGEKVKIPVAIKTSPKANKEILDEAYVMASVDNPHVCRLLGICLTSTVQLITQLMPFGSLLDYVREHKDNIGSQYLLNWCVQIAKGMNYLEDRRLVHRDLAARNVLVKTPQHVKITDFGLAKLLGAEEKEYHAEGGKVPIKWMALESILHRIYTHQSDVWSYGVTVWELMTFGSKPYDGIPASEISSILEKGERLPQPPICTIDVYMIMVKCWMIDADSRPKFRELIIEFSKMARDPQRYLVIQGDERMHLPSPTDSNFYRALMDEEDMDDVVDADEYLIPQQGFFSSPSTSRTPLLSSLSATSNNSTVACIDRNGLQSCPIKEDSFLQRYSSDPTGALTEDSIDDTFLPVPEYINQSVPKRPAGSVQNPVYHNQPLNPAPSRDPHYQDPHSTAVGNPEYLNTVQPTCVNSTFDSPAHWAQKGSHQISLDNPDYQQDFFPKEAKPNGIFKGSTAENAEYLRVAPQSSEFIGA
# Procedure, shortened: as §1
# A-431 = assay: Cell proliferation GI50, A-431 cells (Table 6); assay type: cell-based
# EGFR L858R/T790M = molecular target: T8, EGFR L858R/T790M (Homo sapiens, UniProt P00533, L858R/T790M); assay: Inhibition of EGFR L858R/T790M biochemical enzymatic activity (HTRF); conditions: EGFR L858R-T790M, 1 mM ATP, 1 h, room temperature, read-out: IC50 (nM) @L858R-T790M
# T8 construct: purchased Carna Bio
# T8 sequence (P00533 25-1210 T790M/L858R): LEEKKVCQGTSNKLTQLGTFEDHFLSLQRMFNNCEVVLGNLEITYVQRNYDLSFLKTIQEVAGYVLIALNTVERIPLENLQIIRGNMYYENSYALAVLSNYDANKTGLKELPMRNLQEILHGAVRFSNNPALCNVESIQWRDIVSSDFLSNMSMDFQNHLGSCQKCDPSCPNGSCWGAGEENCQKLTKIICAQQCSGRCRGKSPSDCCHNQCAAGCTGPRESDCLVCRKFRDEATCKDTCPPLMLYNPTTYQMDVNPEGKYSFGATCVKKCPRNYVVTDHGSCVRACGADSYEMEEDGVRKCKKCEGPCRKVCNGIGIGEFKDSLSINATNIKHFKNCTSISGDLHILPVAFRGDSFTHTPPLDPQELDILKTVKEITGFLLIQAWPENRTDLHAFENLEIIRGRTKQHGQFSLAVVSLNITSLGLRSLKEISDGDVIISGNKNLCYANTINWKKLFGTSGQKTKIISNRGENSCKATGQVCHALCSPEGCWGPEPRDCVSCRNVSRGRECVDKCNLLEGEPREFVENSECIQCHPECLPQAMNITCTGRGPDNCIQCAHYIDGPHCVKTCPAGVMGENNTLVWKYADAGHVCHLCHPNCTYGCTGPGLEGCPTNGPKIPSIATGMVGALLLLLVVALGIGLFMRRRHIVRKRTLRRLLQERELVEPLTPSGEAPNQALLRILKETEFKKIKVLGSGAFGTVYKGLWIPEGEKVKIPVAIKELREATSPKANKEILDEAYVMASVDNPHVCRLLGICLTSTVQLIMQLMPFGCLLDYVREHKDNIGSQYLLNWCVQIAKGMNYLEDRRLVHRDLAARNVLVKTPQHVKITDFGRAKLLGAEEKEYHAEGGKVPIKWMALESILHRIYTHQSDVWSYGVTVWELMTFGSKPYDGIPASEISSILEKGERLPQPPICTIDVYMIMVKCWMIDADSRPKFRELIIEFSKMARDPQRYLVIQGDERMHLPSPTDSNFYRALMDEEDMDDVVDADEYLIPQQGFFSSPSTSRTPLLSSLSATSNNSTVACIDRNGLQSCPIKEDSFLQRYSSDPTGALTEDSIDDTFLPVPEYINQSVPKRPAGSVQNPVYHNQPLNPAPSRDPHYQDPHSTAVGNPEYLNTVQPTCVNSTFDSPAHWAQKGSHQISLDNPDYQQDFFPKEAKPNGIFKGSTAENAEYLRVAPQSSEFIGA
# Procedure, shortened: as §1
# PC-9 = assay: Cell proliferation assay, PC-9 cells (CellTiter-Glo, 72 hours); assay type: cell-based; conditions: PC9 cells, CellTiter-Glo, read-out: PC9 GI50
# Procedure, shortened: (§2)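 GI50 is the concentration giving 50% proliferation inhibition. Growth for this was normalised to a baseline viability reading taken when compound was added, and to DMSO wells. PC-9 (500 cells/well) and mutant-EGFR Ba/F3 (5000 cells/well) are treated after overnight seeding in RPMI1640-based medium.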
# [1] = system: Ba/F3 cells expressing EGFR mutations; assay: Cell proliferation assay, Ba/F3 cells expressing EGFR mutations (CellTiter-Glo, 72 hours); assay type: cell-based; conditions: CellTiter-Glo
# Procedure, shortened: as §2
# [2] = molecular target: T9, EGFR[T790M/C797S/d746-750] (Homo sapiens, UniProt P00533, C797S/DEL746-750/T790M); assay: Inhibition of EGFR[T790M/C797S/d746-750] biochemical enzymatic activity (HTRF); conditions: EGFR T790M-C797S-Del19, 1 mM ATP, 1 h, room temperature, read-out: IC50 (nM) @T790M - C797S - Del19
# T9 construct: purchased Carna Bio
# Procedure, shortened: as §1
# [3] = Homo sapiens, A-431, A-431 cells
# [4] = BaF3 cells, EGFR DEL19-C797S, read-out: DEL19-C797S/BaF3 GI50
# [5] = BaF3 cells, EGFR DEL19-T790-C797S, read-out: DEL19-T790-C797S/BaF3 GI50
# [6] = BaF3 cells, EGFR L858R, read-out: L858R/BaF3 GI50
# [7] = BaF3 cells, EGFR L858R-C797S, read-out: L858R-C797S/BaF3 GI50
# [8] = BaF3 cells, EGFR L858R-T790-C797S, read-out: L858R-T790-C797S/BaF3 GI50
# [9] = BaF3 cells, EGFR L858R-T790M, read-out: L858R-T790M/BaF3 GI50
# [10] = EGFR DEL19-T790M, read-out: DEL19-T790M GI50
SMILES,IC50 (EGFR (C797S L858R)),IC50 (EGFR Exon19Del/T790M),IC50 (EGFR L858R),IC50 (EGFR wild type),IC50 (EGFR Exon19Del),IC50 (EGFR[T790M/C797S/L858R]),IC50 (EGFR (d746-750 C797S)),GI50 (A-431; [3]),IC50 (EGFR L858R/T790M),GI50 (PC-9),"GI50 [1, 4]","GI50 [1, 5]","GI50 [1, 6]","GI50 [1, 7]","GI50 [1, 8]","GI50 [1, 9]","GI50 [1, 10]",IC50 [2],GI50 (A-431; A-431 cells),further results
"CN(C)C1CCN(c2ccc3nc4n(c3c2)C23CCC(CN(CCOc5c(cnn5C)-c5cc(cn(C)c5=O)C(=O)N4)C2)C3)CC1(F)F (single isomer, unassigned) [Example A97B]",8.4 nM,4.9 nM,14 nM,224 nM,4.4 nM,4.7 nM,1.7 nM,,5.7 nM,24 nM,0.76 nM,5.6 nM,2 nM,3 nM,3.5 nM,13 nM,6.4 nM,4.8 nM,1450 nM,
"CN1CCOC2(C1)CN(c1ccc3nc4n(c3c1)C13CCC(CN(CCOc5c(cnn5C)-c5cc(cn(C)c5=O)C(=O)N4)C1)C3)C2 (single isomer, unassigned) [Example A86B]",14 nM,9.5 nM,16 nM,110 nM,4 nM,8.1 nM,3.9 nM,2670 nM,12 nM,26 nM,0.71 nM,1.9 nM,2.4 nM,5.2 nM,4.2 nM,10 nM,1.2 nM,8.5 nM,,
"Cn1ncc2c1OCCN1CC3CCC(C3)(C1)n1c(nc3ccc(N4CC(N5CCOCC5)C4)cc31)NC(=O)c1cc-2c(=O)n(C)c1 (single isomer, unassigned) [Example A69A]",> 5000 nM,> 5000 nM,> 5000 nM,> 5000 nM,1200 nM,> 5000 nM,1780 nM,,> 5000 nM,723 nM,227 nM,366 nM,643 nM,598 nM,503 nM,1530 nM,465 nM,> 5000 nM,9380 nM,
"Cn1ncc2c1OCCN1CC3CCC(C3)(C1)n1c(nc3ccc(N4CCC(N5CC(F)C5)C4)cc31)NC(=O)c1cc-2c(=O)n(C)c1 (single isomer, unassigned) [Example A94B, 5-[3-(3-Fluoroazetidin-1-yl)pyrrolidin-1-yl]-15,21-dimethyl-23-oxa-2,9,11,15,20,21,26-heptaazaheptacyclo[24.4.1.1^{1,28}.1^{13,17}.0^{2,10}.0^{3,8}.0^{18,22}]tritriaconta-3,5,7,9,13,17(33),18(22),19-octaene-12,16-dione]",20 nM,11 nM,29 nM,235 nM,5.2 nM,9.5 nM,6.1 nM,,11 nM,35 nM,,4.5 nM,5.1 nM,,7.7 nM,14 nM,3.3 nM,8.4 nM,2880 nM,
"CN1CCC2CN(c3ccc4nc5n(c4c3)C34CCC(CN(CCOc6c(cnn6C)-c6cc(cn(C)c6=O)C(=O)N5)C3)C4)CC21 (single isomer, unassigned) [Example A79B]",13 nM,10 nM,27 nM,126 nM,6.3 nM,8.3 nM,5 nM,1280 nM,12 nM,23 nM,0.7 nM,10 nM,12 nM,8.5 nM,14 nM,37 nM,13 nM,11 nM,,

# Stronger by IC50 (EGFR (C797S L858R)), values ahead:
IC50 (EGFR (C797S L858R)),IC50 (EGFR Exon19Del/T790M),IC50 (EGFR L858R),IC50 (EGFR wild type),IC50 (EGFR Exon19Del),IC50 (EGFR[T790M/C797S/L858R]),IC50 (EGFR (d746-750 C797S)),GI50 (A-431; [3]),IC50 (EGFR L858R/T790M),GI50 (PC-9),"GI50 [1, 4]","GI50 [1, 5]","GI50 [1, 6]","GI50 [1, 7]","GI50 [1, 8]","GI50 [1, 9]","GI50 [1, 10]",IC50 [2],GI50 (A-431; A-431 cells),SMILES,further results
4.1 nM,2.9 nM,3.3 nM,21 nM,1.8 nM,2.3 nM,1.3 nM,280 nM,2.7 nM,7.6 nM,0.64 nM,1.5 nM,0.54 nM,2.8 nM,1.1 nM,3 nM,1.5 nM,2.7 nM,,"CN1C2CC1CN(c1ccc3nc4n(c3c1)C13CCC(CN(CCOc5c(cnn5C)-c5cc(cn(C)c5=O)C(=O)N4)C1)C3)C2 (single isomer, unassigned) [Example A98B]",
2.9 nM,2.2 nM,4 nM,13 nM,1.3 nM,1.9 nM,1.4 nM,1070 nM,1.9 nM,7.3 nM,0.54 nM,1.9 nM,1.8 nM,3.5 nM,1.9 nM,8 nM,1.5 nM,2.1 nM,,"CN1CC2(CCN(c3ccc4nc5n(c4c3)C34CCC(CN(CCOc6c(cnn6C)-c6cc(cn(C)c6=O)C(=O)N5)C3)C4)C2)C1 (single isomer, unassigned) [Example A73B]",
1.8 nM,1.9 nM,1.5 nM,2.7 nM,1.1 nM,2 nM,0.84 nM,215 nM,2.2 nM,,,,,,,,,2 nM,,C[C@@H]1CCCOc2c(cnn2C)-c2cc(cn(C)c2=O)C(=O)Nc2nc3ccc(N4CCC5(CCN(C)C5)CC4)cc3n2C1 [Example A35],"GI50 (PC-9; Homo sapiens, PC-9, 72 h): 3.7 nM; GI50 ([1]; Mus musculus, BaF3, 72 h, BaF3 cells, EGFR DEL19-C797S, read-out: DEL19-C797S/BaF3 GI50): 0.38 nM; GI50 ([1]; Mus musculus, BaF3, 72 h, BaF3 cells, EGFR DEL19-T790-C797S, read-out: DEL19-T790-C797S/BaF3 GI50): 0.5 nM; GI50 ([1]; Mus musculus, BaF3, 72 h, BaF3 cells, EGFR L858R, read-out: L858R/BaF3 GI50): 0.53 nM; GI50 ([1]; Mus musculus, BaF3, 72 h, BaF3 cells, EGFR L858R-C797S, read-out: L858R-C797S/BaF3 GI50): 1.7 nM; GI50 ([1]; Mus musculus, BaF3, 72 h, BaF3 cells, EGFR L858R-T790-C797S, read-out: L858R-T790-C797S/BaF3 GI50): 1 nM; GI50 ([1]; Mus musculus, BaF3, 72 h, BaF3 cells, EGFR L858R-T790M, read-out: L858R-T790M/BaF3 GI50): 3.4 nM; GI50 ([1]; Mus musculus, BaF3, 72 h, EGFR DEL19-T790M, read-out: DEL19-T790M GI50): 1.6 nM"
